Experimental data taken from patent US12377067B2, “Methods of treating PAH with combinations of ralinepag and other agents” (Arena Pharmaceuticals, Inc., priority 2016, dated 2025).

Columns and labels:
[1] = system: human PASMCs from PAH patients; assay: Cyclic AMP assay; format: cell-based; settings: cyclic AMP assay
Protocol: Human PASMCs from PAH patients were grown to 70-80% confluence in 12 well plates in DMEM/F12 containing 9% foetal bovine serum (FBS), penicillin (50 U/ml)/streptomycin (50 ag/ml). To assess the time-course of cAMP elevation, cells were stimulated with 100 nM ralinepag for varying times (0.5, 1, 2, 4, 8, 24, 48 hours). This dose of ralinepag was chosen on the basis that it was close to the EC50 for cAMP generation in preliminary experiments. In other experiments, the IP receptor agonist was added for a specified time (60 minutes) over a full concentration range (0.1-10,000 nM) in the absence and presence of […] of the IP receptor antagonist, RO-1138452. The antagonist is added 30 minutes beforehand and remained throughout.
To extract cyclic AMP, the medium was aspirated and PASMCs cells incubated in 0.1 M HCl for 20 minutes on ice followed by centrifugation at 1000 g for 10 minutes at 4° C. The protein concentration in the supernatant was determined using a […] protein assay (BCA, Novagen, EmD Chemicals, CA, USA). Intracellular cyclic AMP was measured using a competitive enzyme immunoassay 96 well plate kit (ADI-900-163, Enzo Life Sciences, Exeter, UK) and the assay performed according to the manufacturer's instructions. Each sample was run in duplicate and data expressed as pmol of cAMP per mg of total protein for each individual sample. Basal levels were subtracted from each agonist concentration data point. Given the large variation (˜15-fold) in cAMP generation from different patient samples, data was also normalized to the peak cyclic AMP response (assigned 100%) in each cell isolate.

[2] = system: human PASMCs from PAH patients; assay: Cell proliferation assay (MTS), serum-induced growth; format: cell-based; settings: for IP receptor dependence of the effect: cyclic AMP and cell proliferation assays in human PASMCs from PAH patients; for inhibition of serum-induced growth (significance) / inhibition at 0.1 µM: drug alone at 100 nM; for inhibition of serum-induced growth (significance): compared to serum and DMSO alone; for inhibition at 0.1 µM: Homo sapiens, PASMC, 96 h, compared to FBS and DMSO, 4 days
Protocol: Primary cell lines of distal PASMCs from PAH patients were derived from explanted lungs as previously described (Falcetti et al., 2010; Bubb et al., 2014). These cells have an abnormal proliferative capacity when grown in culture (Zhang et al., 2007; Falcetti et al., 2010). Frozen cells were revived and grown in human smooth muscle basal medium-2 (SMBM; Lonza, Slough, UK) supplemented with 9% fetal bovine serum (FBS) at 37° C. in a humidified atmosphere of 5% CO2. After reaching confluence, cells were washed with phosphate-buffered saline (PBS) and treated with trypsin-EDTA for further passage. Only cells between passages 3 and 10 were used for experiments.
Comparative concentration-dependent effects of IP receptor agonists on cell proliferation were assessed on human PASMCs derived from PAH patients. Cells were seeded onto 96-well plates at a density of 1×10^4 cells/ml and grown at 37° C. in a humidified CO2 incubator in human smooth muscle basal medium-2 (SMBM; Lonza) containing 9% FBS and penicillin-streptomycin (Pen/Strep; 50 units/ml). After 24 hours, cells were growth arrested by incubating for 48 hours in fresh media containing no added serum. Media was then subsequently removed, replaced with human SMBM containing 9% serum with or without 0.1% DMSO in the absence and presence of the IP receptor agonist (either ralinepag, iloprost, treprostinil or MRE-269) and cells treated with the IP receptor agonist for 4 days over the concentration range ([…]). Responses were directly compared in cells containing the IP receptor antagonist, RO-1138452 (1 μM), which was added to cells 30-60 minutes prior to the addition of the IP agonist and remained throughout the experiment. Cells incubated with no added serum over the same time period (4 days) acted as the time control.
Cell proliferation was obtained using an MTS proliferation kit (Promega), a colorimetric method for determining the number of viable cells which is based on the cleavage of the tetrazolium salt MTS to formazan by cellular mitochondrial dehydrogenases. An increase in cell number leads to a proportional increase in the amount of formazan dye formed which is quantified by measuring the absorbance of the dye solution at 490 nm. In each case background absorbance was corrected by subtracting the average absorbance from the “no cell” control wells from all other absorbance values.
Cell proliferation was then normalized to the growth response induced by FBS alone, which was taken as the FBS response minus the time control (=100% growth at 4 days). Growth responses induced in presence of solvent±drugs is shown as % change in cell proliferation relative to the FBS response alone in all figures.
All data are presented as mean±standard error of mean (S.E.M) of at least 5 observations. Agonist log-concentration curves were constructed and fitted using the non-linear fitting routine in GraphPad Prism 4 or 6 (San Diego, Calif., USA). The concentration of agonist causing 50% of the maximal response (Emax) was expressed as the negative log (pEC50) and the mean EC50 calculated. P values <0.05 are considered statistically significant.

human IP receptor = human IP receptor (Homo sapiens, UniProt P43119); settings: cited from earlier work
human IP receptor, sequence (P43119 whole entry): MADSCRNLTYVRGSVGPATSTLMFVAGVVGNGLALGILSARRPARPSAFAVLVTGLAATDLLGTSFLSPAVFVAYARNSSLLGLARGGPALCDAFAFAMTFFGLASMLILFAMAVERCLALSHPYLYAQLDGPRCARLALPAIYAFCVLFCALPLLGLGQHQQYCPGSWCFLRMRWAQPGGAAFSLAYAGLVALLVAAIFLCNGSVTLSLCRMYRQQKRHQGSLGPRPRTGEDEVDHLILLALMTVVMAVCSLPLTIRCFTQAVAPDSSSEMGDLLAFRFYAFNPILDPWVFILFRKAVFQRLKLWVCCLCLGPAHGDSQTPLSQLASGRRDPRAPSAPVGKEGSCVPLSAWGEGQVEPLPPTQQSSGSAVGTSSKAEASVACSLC

PDE1 = settings: cited from earlier work

Compound: CC(C)N(CCCCOCC(=O)O)c1cnc(-c2ccccc2)c(-c2ccccc2)n1 [MRE-269, [4[(5,6diphenylpyrazinyl)(1methylethyl)amino]butoxy]acetic acid, reference compound]
- maximal effect compared with treprostinil [1]: weaker maximal effects
- maximal effect compared with treprostinil ([2]; cell proliferation assay): weaker maximal effects
- IP receptor dependence of the effect [2]: selective IP receptor agonists
- Ki (human IP receptor): 20 nM

Compound: COc1ccccc1Oc1c(NS(=O)(=O)c2ccc(C(C)(C)C)cc2)nc(-c2ncccn2)nc1OCCO [bosentan, reference compound]
- inhibition of serum-induced growth (significance) [2]: did not cause a significant inhibition

Compound: CC#CCC(C)[C@H](O)/C=C/[C@@H]1[C@H]2C/C(=C/CCCC(=O)O)C[C@H]2C[C@H]1O (some centres unmarked) [iloprost, reference compound]
- IP receptor dependence of the effect [2]: IP-independent mechanisms

Compound: CCCNS(=O)(=O)Nc1ncnc(OCCOc2ncc(Br)cn2)c1-c1ccc(Br)cc1 [macitentan, reference compound]
- inhibition at 0.1 µM [2]: ~12%

Compound: COC(=O)N(C)c1c(N)nc(-c2nn(Cc3ccccc3F)c3ncccc23)nc1N [riociguat, reference compound]
- inhibition at 0.1 µM [2]: ~15%

Compound: CC(C)N(CCCCOCC(=O)NS(C)(=O)=O)c1cnc(-c2ccccc2)c(-c2ccccc2)n1 [selexipag, 2-{4-[(5,6-diphenylpyrazin-2-yl)(propan-2-yl)amino]butoxy}-N-(methanesulfonyl)acetamide]
- Ki (human IP receptor): 260 nM

Compound: CCCc1nn(C)c2c(=O)[nH]c(-c3cc(S(=O)(=O)N4CCN(C)CC4)ccc3OCC)nc12 [sildenafil, reference compound]
- Ki (PDE1): 40 nM
- inhibition of serum-induced growth (significance) [2]: did not significantly inhibit growth

Compound: CCCCC[C@H](O)CC[C@@H]1[C@H]2Cc3cccc(OCC(=O)O)c3C[C@H]2C[C@H]1O [treprostinil, reference compound]
- antiproliferative response in the presence of an IP receptor antagonist ([2]; IP receptor antagonist RO-1138452 (1 μM)): only weakly inhibited
- IP receptor dependence of the effect [2]: IP-independent mechanisms
- inhibition of serum-induced growth (significance) [2]: significantly inhibited growth
